Where two headings read alike, the source gives them in different places.
Target: T1, human full-length HSP90 (Homo sapiens, UniProt P08238)
T1 construct: E. coli expressed human full-length HSP90 protein, purified >95%; made in house; host or cells: E. coli
Experiment: Fluorescence polarization (FP) binding assay
Conditions: competitive displacement of fluorescein-labelled probe from human full-length HSP90, activity range
From the text: Fluorescence Polarization Assay
Fluorescence polarization {also known as fluorescence anisotropy} measures the rotation of a fluorescing species in solution, where the larger molecule the more polarized the fluorescence emission. When the fluorophore is excited with polarized light, the emitted light is also polarized. The molecular size is proportional to the polarization of the fluorescence emission.
The fluoroscein-labelled probe—
binds to HSP90 {full-length human, full-length yeast or N-terminal domain HSP90} and the anisotropy {rotation of the probe:protein complex} is measured.
Test compound is added to the assay plate, left to equilibrate and the anisotropy measured again. Any change in anisotropy is due to competitive binding of compound to HSP90, thereby releasing probe.
Stored at room temperature. • 3) BSA (bovine serum albumen) 10 mg/ml (New England Biolabs # B9001S) • 4) 20 mM probe in 100% DMSO stock concentration. Stored in the dark at RT. Working concentration is 200 nM diluted in AR water and stored at 4° C.
• 1) Add 100 μl×buffer to wells 1A and 12A(=FP BLNK) • 2) Prepare assay mix—all reagents are kept on ice with a lid on the bucket as the probe is light-sensitive.
• 3) Aliquot 100 μl assay mix to all other wells • 4) Seal plate and leave in dark at room temp for 20 minutes to equilibrate
This gives 2.5 mM {50×} stock cpd−assuming cpds 20 mM. • 4) Repeat for wells A2 to A10. Control in columns 11 and 12. • 5) Transfer 5 μl from row A to row B—not column 12. Mix well. • 6) Transfer 5 μl from row B to row C. […] Add 2 μl of 100 mM standard cpd to wells B12-H12 {is positive control} • 13) The Z′ factor is calculated from zero controls and positive wells.

[1] = read-out: activity in the fluorescence polarization assay
[2] = read-out: ACTIVITY* (Activity in the FP binding assay)

T1 sequence (P08238 whole entry): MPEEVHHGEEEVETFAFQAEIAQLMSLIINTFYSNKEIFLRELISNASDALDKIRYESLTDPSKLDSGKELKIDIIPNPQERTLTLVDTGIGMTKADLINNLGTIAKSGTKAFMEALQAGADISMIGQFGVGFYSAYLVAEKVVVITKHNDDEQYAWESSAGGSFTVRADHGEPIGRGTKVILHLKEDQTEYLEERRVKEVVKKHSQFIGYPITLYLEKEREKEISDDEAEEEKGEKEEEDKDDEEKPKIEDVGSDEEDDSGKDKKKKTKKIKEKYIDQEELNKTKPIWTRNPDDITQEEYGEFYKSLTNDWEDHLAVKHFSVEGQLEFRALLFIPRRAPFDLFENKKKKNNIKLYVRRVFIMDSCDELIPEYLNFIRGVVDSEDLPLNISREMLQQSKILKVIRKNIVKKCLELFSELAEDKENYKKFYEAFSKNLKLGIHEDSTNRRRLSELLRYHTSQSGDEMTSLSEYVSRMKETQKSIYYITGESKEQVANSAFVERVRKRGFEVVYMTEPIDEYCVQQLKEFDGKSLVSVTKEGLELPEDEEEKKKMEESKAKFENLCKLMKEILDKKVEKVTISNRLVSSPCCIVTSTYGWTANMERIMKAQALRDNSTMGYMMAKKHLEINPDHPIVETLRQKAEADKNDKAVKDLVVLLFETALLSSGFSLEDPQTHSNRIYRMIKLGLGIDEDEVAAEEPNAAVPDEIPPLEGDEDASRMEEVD

| IC50 [1] | IC50 [2] | SMILES |
| --- | --- | --- |
| < 500 nM |  | Cc1cc(F)ccc1-c1nc(SCCO)nc2[nH]cc(C#N)c12 [Example 20, 4-(4-Fluoro-2-methyl-phenyl)-2-(2-hydroxy-ethylsulfanyl)-7H-pyrrolo[2,3-d]pyrimidine-5-carbonitrile] |
| < 500 nM |  | Cc1cc(F)ccc1-c1nc(SCCN2CCOCC2)nc2[nH]cc(C#N)c12 [Example 21, 4-(4-Fluoro-2-methyl-phenyl)-2-(2-morpholin-4-yl-ethylsulfanyl)-7H-pyrrolo[2,3-d]pyrimidine-5-carbonitrile] |
| < 500 nM |  | COc1cc(-c2nc(SC)nc3[nH]cc(C#N)c23)c(Cl)cc1Cl [Example 22, 4-(2,4-Dichloro-5-methoxy-phenyl)-2-methylsulfanyl-7H-pyrrolo[2,3-d]pyrimidine-5-carbonitrile] |
| < 500 nM |  | CCN(CC)CCSc1nc(-c2cc(OC)c(Cl)cc2Cl)c2c(C#N)c[nH]c2n1 [Example 23, 4-(2,4-Dichloro-5-methoxy-phenyl)-2-(2-diethylamino-ethylsulfanyl)-7H-pyrrolo[2,3-d]pyrimidine-5-carbonitrile] |
| < 500 nM |  | COc1cc(-c2nc(OCCN3CCCC3=O)nc3[nH]cc(C#N)c23)c(Cl)cc1Cl [Example 25, 4-(2,4-Dichloro-5-methoxy-phenyl)-2-[2-(2-oxo-pyrrolidin-1-yl)-ethoxy]-7H-pyrrolo[2,3-d]pyrimidine-5-carbonitrile] |
| < 500 nM |  | CSc1nc(-c2cc(OCCN3CCCC3)c(Cl)cc2Cl)c2c(C#N)c[nH]c2n1 [Example 26, 4-[2,4-Dichloro-5-(2-pyrrolidin-1-yl-ethoxy)-phenyl]-2-methylsulfanyl-7H-pyrrolo[2,3-d]pyrimidine-5-carbonitrile] |
| < 500 nM |  | CCN(CC)CCOc1cc(-c2nc(SC)nc3[nH]cc(C#N)c23)c(Cl)cc1Cl [Example 27, 4-[2,4-Dichloro-5-(2-diethylamino-ethoxy)-phenyl]-2-methylsulfanyl-7H-pyrrolo[2,3-d]pyrimidine-5-carbonitrile] |
| < 500 nM |  | COc1cc(Cl)c(-c2nc(SC)nc3[nH]cc(C#N)c23)cc1OC [Example 29, 4-(2-Chloro-4,5-dimethoxy-phenyl)-2-methylsulfanyl-7H-pyrrolo[2,3-d]pyrimidine-5-carbonitrile] |
| < 500 nM |  | CCN(CC)CCSc1nc(-c2cc(OC)c(OC)cc2Cl)c2c(C#N)c[nH]c2n1 [Example 30, 4-(2-Chloro-4,5-dimethoxy-phenyl)-2-(2-diethylamino-ethylsulfanyl)-7H-pyrrolo[2,3-d]pyrimidine-5-carbonitrile] |
| < 500 nM |  | COc1ccc(-c2nc(OCCN3CCC(F)(F)CC3)nc3[nH]cc(C#N)c23)cc1OC [Example 32, 4-(4,5-Dimethoxy-phenyl)-2-[2-(4,4-difluoro-piperidin-1-yl)-ethoxy]-7H-pyrrolo[2,3-d]pyrimidine-5-carbonitrile] |
| 500 to 10000 nM |  | COc1ccc(-c2nc(OCCN3CCC(F)(F)C3)nc3[nH]cc(C#N)c23)cc1OC [Example 33, 2-[2-(3,3-Difluoro-pyrrolidin-1-yl)-ethoxy]-4-(3,4-dimethoxy-phenyl)-7H-pyrrolo[2,3-d]pyrimidine-5-carbonitrile] |
| 500 to 10000 nM |  | COc1ccc(-c2nc(OCCN3CC[C@H](F)C3)nc3[nH]cc(C#N)c23)cc1OC [Example 34, 4-(3,4-Dimethoxy-phenyl)-2-[2-(3(S)-fluoro-pyrrolidin-1-yl)-ethoxy]-7H-pyrrolo[2,3-d]pyrimidine-5-carbonitrile] |
| < 500 nM |  | COc1cc(Cl)c(-c2nc(OCCN3CC[C@H](F)C3)nc3[nH]cc(C#N)c23)cc1OC [Example 35] |
| < 500 nM |  | COc1cc(Cl)c(-c2nc(OCCN3CCC(F)(F)C3)nc3[nH]cc(C#N)c23)cc1OC [Example 36] |
| < 500 nM |  | CCN(CC)CCSc1nc(-c2cc(OC)c(C#N)cc2Cl)c2c(C#N)c[nH]c2n1 [Example 37, 4-(2-Chloro-4-cyano-5-methoxy-phenyl)-2-(2-diethylamino-ethylsulfanyl)-7H-pyrrolo[2,3-d]pyrimidine-5-carbonitrile] |
| < 500 nM |  | CNC(=O)CSc1nc(-c2ccc(F)cc2C)c2c(C#N)c[nH]c2n1 [Example 38, 2-[5-Cyano-4-(4-fluoro-2-methyl-phenyl)-7H-pyrrolo[2,3-d]pyrimidin-2-ylsulfanyl]-N-methyl-acetamide] |
| > 10000 nM |  | Cc1ccc(-c2ncnc3[nH]cc(C(N)=O)c23)c(C)c1 [Example 39, 4-(2,4-Dimethyl-phenyl)-7H-pyrrolo[2,3-d]pyrimidine-5-carboxylic Acid Amide] |
| > 10000 nM |  | CSc1nc(-c2ccc(F)cc2C)c2c(C(N)=O)c[nH]c2n1 [Example 40, 4-(4-Fluoro-2-methyl-phenyl)-2-methylsulfanyl-7H-pyrrolo[2,3-d]pyrimidine-5-carboxylic Acid Amide] |
| < 500 nM |  | CSc1nc(-c2ccc(Cl)cc2Cl)c2c(C#N)c[nH]c2n1 [Example 41, 4-(Dichloro-phenyl)-2-methylsulfanyl-7H-pyrrolo[2,3-d]pyrimidine-5-carbonitrile] |
| < 500 nM |  | COc1cc(-c2nc(SC)nc3[nH]cc(C#N)c23)c(Cl)cc1C#N [Example 42, 4-(2-Chloro-4-cyano-5-methoxy)-2-methylsulfanyl-7H-pyrrolo[2,3-d]pyrimidine-5-carbonitrile] |

| IC50 [1] | IC50 [2] | SMILES |
| --- | --- | --- |
| > 10000 nM |  | CSc1nc(-c2ccc3c(c2)OCCO3)c2c(C#N)c[nH]c2n1 [Example 43, 4-(2,3-Dihydro-benzo[1,4]dioxin-6-yl)-2-methylsulfanyl-7H-pyrrolo[2,3-d]pyrimidine-5-carbonitrile] |
| < 500 nM |  | COc1ccc(-c2nc(SC)nc3[nH]cc(C#N)c23)cc1OC [Example 44, 4-(Dimethoxy-phenyl)-2-methylsulfanyl-7H-pyrrolo[2,3-d]pyrimidine-5-carbonitrile] |
| < 500 nM |  | CCN(CC)CCOc1cc(-c2nc(SC(C)C)nc3[nH]cc(C#N)c23)c(Cl)cc1OC [Example 45, 4-[2-Chloro-5-(2-diethylamino-ethoxy)-4-methoxy-phenyl]-2-isopropylsulfanyl-7H-pyrrolo[2,3-d]pyrimidine-5-carbonitrile] |
| 500 to 10000 nM |  | CCN(CC)CC[S+]([O-])c1nc(-c2cc(OC)c(OC)cc2Cl)c2c(C#N)c[nH]c2n1 (stereo not shown) [Example 46, 4-(2-Chloro-4,5-dimethoxy-phenyl)-2-(2-diethylamino-ethanesulfinyl)-7H-pyrrolo[2,3-d]pyrimidine-5-carbonitrile] |
| 500 to 10000 nM |  | COc1cc(Cl)c(-c2nc([S+](C)[O-])nc3[nH]cc(C#N)c23)cc1OC (stereo not shown) [Example 47] |
| 500 to 10000 nM |  | COc1cc(Cl)c(-c2nc(S(C)(=O)=O)nc3[nH]cc(C#N)c23)cc1OC [Example 48, 4-(2-Chloro-4,5-dimethoxy-phenyl)-2-methanesulfonyl-7H-pyrrolo[2,3-d]pyrimidine-5-carbonitrile] |
| < 500 nM |  | CCOC(=O)CSc1nc(-c2cc(OCCN3CCC(F)(F)C3)c(OC)cc2Cl)c2c(C#N)c[nH]c2n1 [Example 49, (4-{2-Chloro-5-[2-(3,3-difluoro-pyrrolidin-1-yl)-ethoxy]-4-methoxy-phenyl}-5-cyano-7H-pyrrolo[2,3-d]pyrimidin-2-ylsulfanyl)-acetic Acid Ethyl Ester] |
| < 500 nM |  | COc1cc(Cl)c(-c2nc(SCC(=O)O)nc3[nH]cc(C#N)c23)cc1OCCN1CCC(F)(F)C1 [Example 50, (4-{2-Chloro-5-[2-(3,3-difluoro-pyrrolidin-1-yl)-ethoxy]-4-methoxy-phenyl}-5-cyano-7H-pyrrolo[2,3-d]pyrimidin-2-ylsulfanyl)-acetic Acid] |
|  | 500 to 10000 nM | N#Cc1c[nH]c2nc(OCCN3CCC(F)(F)CC3)nc(-c3cc(OCc4ccccc4)c(Cl)cc3Cl)c12 [Example 52] |
|  | 500 to 10000 nM | CCN(CC)CCOc1nc(-c2ccc(OC)c(OC)c2)c2c(C#N)c[nH]c2n1 [Example 53] |
|  | 500 to 10000 nM | CSc1nc(-c2cc(OCc3ccccc3)c(Cl)cc2Cl)c2c(C#N)c[nH]c2n1 [Example 54] |
|  | 500 to 10000 nM | COc1cc(-c2nc(SC)nc3[nH]cc(C#N)c23)ccc1C#N [Example 55] |
|  | < 500 nM | CCN(CC)CCOc1nc(-c2cc(OC)c(OC)cc2Cl)c2c(C#N)c[nH]c2n1 [Example 56] |
|  | < 500 nM | COc1cc(Cl)c(-c2nc(OCCCN3CCCC3=O)nc3[nH]cc(C#N)c23)cc1OC [Example 57] |
|  | < 500 nM | COc1cc(Cl)c(-c2nc(OCCN3CC[C@H](F)C3)nc3[nH]cc(C#N)c23)cc1OC [Example 58] |
|  | < 500 nM | CCN(CC)CCCOc1nc(-c2cc(OC)c(OC)cc2Cl)c2c(C#N)c[nH]c2n1 [Example 59] |
|  | < 500 nM | COc1cc(Cl)c(-c2nc(OCCCN3CCOCC3)nc3[nH]cc(C#N)c23)cc1OC [Example 60] |
|  | < 500 nM | COc1cc(Cl)c(-c2nc(OCCN3CCOCC3)nc3[nH]cc(C#N)c23)cc1OC [Example 61] |
|  | < 500 nM | COc1cc(-c2nc(OCCN3CCCC(F)(F)C3)nc3[nH]cc(C#N)c23)c(Cl)cc1C#N [Example 62] |
|  | < 500 nM | COc1cc(-c2nc(OCCN3CCCC(F)C3)nc3[nH]cc(C#N)c23)c(Cl)cc1C#N (stereo not shown) [Example 63] |
